Data published in patent US11477982B2, “2-amino-5-oxyalkyl-pyrimidine derivatives and their use for controlling undesired plant growth” (Bayer CropScience Aktiengesellschaft, priority 2017, dated 2022).

Key:
Type in all cases: in vivo
[1] = test system: ABUTH: Abutilon theophrasti; assay: Pre-emergence herbicidal effect; details: dosage 320 g/ha
Procedure, shortened: (§1)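 Visual percent scoring against untreated pots after roughly 3 weeks in the greenhouse (100% = dead, 0% = no effect). Treatment was a pre-emergence soil-surface spray of WP or EC formulations in water plus 0.5% additive, 600 l/ha.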

[2] = test system: ALOMY: Alopecurus myosuroides; assay: Pre-emergence herbicidal effect; details: pre-emergence; dosage 320 g/ha
Procedure, shortened: as §1

[3] = test system: AMARE: Amaranthus retroflexus; assay: Pre-emergence herbicidal effect; details: pre-emergence; dosage 320 g/ha
Procedure, shortened: as §1

[4] = test system: AVEFA: Avena fatua; assay: Pre-emergence herbicidal effect; details: dosage 320 g/ha
Procedure, shortened: as §1

[5] = test system: CYPES; assay: Pre-emergence herbicidal effect
Procedure, shortened: as §1

[6] = test system: ECHCG: Echinochloa crus-galli; assay: Pre-emergence herbicidal effect; details: pre-emergence; dosage 320 g/ha
Procedure, shortened: as §1

[7] = test system: HORMU: Hordeum murinum; assay: Pre-emergence herbicidal effect; details: pre-emergence; dosage 320 g/ha
Procedure, shortened: as §1

[8] = test system: LOLRI: Lolium rigidum; assay: Pre-emergence herbicidal effect; details: dosage 320 g/ha
Procedure, shortened: as §1

[9] = test system: MATIN: Matricaria inodora; assay: Pre-emergence herbicidal effect; details: pre-emergence; dosage 320 g/ha
Procedure, shortened: as §1

[10] = test system: PHBPU: Ipomoea purpurea; assay: Pre-emergence herbicidal effect; details: dosage 320 g/ha
Procedure, shortened: as §1

[11] = test system: POLCO: Polygonum convolvulus; assay: Pre-emergence herbicidal effect; details: dosage 320 g/ha
Procedure, shortened: as §1

[12] = test system: SETVI: Setaria viridis; assay: Pre-emergence herbicidal effect; details: pre-emergence; dosage 320 g/ha
Procedure, shortened: as §1

[13] = test system: STEME: Stellaria media; assay: Pre-emergence herbicidal effect; details: pre-emergence; dosage 320 g/ha
Procedure, shortened: as §1

[14] = test system: VERPE: Veronica persica; assay: Pre-emergence herbicidal effect; details: dosage 320 g/ha
Procedure, shortened: as §1

[15] = test system: VIOTR: Viola tricolor; assay: Pre-emergence herbicidal effect; details: dosage 320 g/ha
Procedure, shortened: as §1

[16] = test system: ABUTH: Abutilon theophrasti; assay: Post-emergence herbicidal effect; details: dosage 320 g/ha
Procedure, shortened: (§2)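 Visual rating, made about 3 weeks after treatment against untreated plants, runs from 0% (like controls) to 100% (plants dead). WP or EC formulations were applied post-emergence as aqueous spray at 600 l/ha with 0.5% additive. Plants were at the one-leaf stage, 2 to 3 weeks after sowing in sandy loam.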

[17] = test system: ALOMY: Alopecurus myosuroides; assay: Post-emergence herbicidal effect; details: dosage 320 g/ha
Procedure, shortened: as §2

[18] = test system: AMARE: Amaranthus retroflexus; assay: Post-emergence herbicidal effect; details: dosage 320 g/ha
Procedure, shortened: as §2

[19] = test system: AVEFA: Avena fatua; assay: Post-emergence herbicidal effect; details: dosage 320 g/ha
Procedure, shortened: as §2

[20] = test system: ECHCG: Echinochloa crus-galli; assay: Post-emergence herbicidal effect; details: dosage 320 g/ha
Procedure, shortened: as §2

[21] = test system: MATIN: Matricaria inodora; assay: Post-emergence herbicidal effect
Procedure, shortened: as §2

[22] = test system: PHBPU: Ipomoea purpurea; assay: Post-emergence herbicidal effect; details: dosage 320 g/ha
Procedure, shortened: as §2

[23] = test system: POLCO: Polygonum convolvulus; assay: Post-emergence herbicidal effect
Procedure, shortened: as §2

[24] = test system: SETVI: Setaria viridis; assay: Post-emergence herbicidal effect; details: dosage 320 g/ha
Procedure, shortened: as §2

[25] = test system: STEME: Stellaria media; assay: Post-emergence herbicidal effect
Procedure, shortened: as §2

[26] = test system: VERPE: Veronica persica; assay: Post-emergence herbicidal effect; details: dosage 320 g/ha
Procedure, shortened: as §2

[27] = test system: VIOTR: Viola tricolor; assay: Post-emergence herbicidal effect
Procedure, shortened: as §2

CC(C)(O)c1cnc(N[C@@H]2CCCc3ccccc32)nc1 [Example 1.8, 2-{2-[(1R)-1,2,3,4-Tetrahydronaphthalen-1-ylamino]pyrimidin-5-yl}propan-2-ol]
90%: Herbicidal action against ABUTH [16] | Herbicidal action against POLCO ([23]; dosage 320 g/ha) | Herbicidal action against VERPE [26] | Herbicidal action against VIOTR ([27]; dosage 320 g/ha)
100%: Herbicidal action against ABUTH [1] | Herbicidal action against ALOMY [2] | Herbicidal action against AMARE [3] | Herbicidal action against AVEFA [4] | Herbicidal action against ECHCG [6] | Herbicidal action against HORMU [7] | Herbicidal action against LOLRI [8] | Herbicidal action against MATIN [9] | Herbicidal action against PHBPU [10] | Herbicidal action against POLCO [11] | Herbicidal action against SETVI [12] | Herbicidal action against STEME [13] | Herbicidal action against VERPE [14] | Herbicidal action against VIOTR [15] | Herbicidal action against AMARE [18] | Herbicidal action against AVEFA [19] | Herbicidal action against ECHCG [20] | Herbicidal action against MATIN ([21]; dosage 320 g/ha) | Herbicidal action against SETVI [24] | Herbicidal action against STEME ([25]; dosage 320 g/ha)
70%: Herbicidal action against CYPES ([5]; dosage 320 g/ha) | Herbicidal action against ALOMY [17]
80%: Herbicidal action against PHBPU [22]

Cc1ccc2c(c1)[C@H](Nc1ncc(C(C)(C)O)c(N)n1)[C@@H](C)C2 [drawing 3, reference compound]
70%: Herbicidal action against CYPES ([5]; dosage 320 g/ha)
60%: Herbicidal action against CYPES ([5]; dosage 80 g/ha)

Cc1ccc2c(c1)[C@H](Nc1ncc(C(C)(C)O)c(N)n1)[C@@H](C)C2 [drawing 12, reference compound]
50%: Herbicidal action against PHBPU [22]
60%: Herbicidal action against MATIN ([21]; dosage 320 g/ha) | Herbicidal action against VIOTR ([27]; dosage 80 g/ha)
0%: Herbicidal action against MATIN ([21]; dosage 80 g/ha) | Herbicidal action against POLCO ([23]; dosage 80 g/ha) | Herbicidal action against POLCO ([23]; dosage 320 g/ha) | Herbicidal action against STEME ([25]; dosage 80 g/ha) | Herbicidal action against STEME ([25]; dosage 320 g/ha)

Cc1ccc2c(c1)[C@H](Nc1ncc(C(C)(C)O)c(N)n1)[C@@H](C)C2 [drawing 13, reference compound]
50%: Herbicidal action against PHBPU [22]
60%: Herbicidal action against VIOTR ([27]; dosage 80 g/ha)
0%: Herbicidal action against MATIN ([21]; dosage 80 g/ha) | Herbicidal action against POLCO ([23]; dosage 320 g/ha) | Herbicidal action against STEME ([25]; dosage 80 g/ha) | Herbicidal action against STEME ([25]; dosage 320 g/ha)
